In patent US11401271B2, “Fused heterocyclic compound, pyrazole-ring-containing fused heterocyclic compound, agricultural composition containing thereof, and method of using the composition” (SOUTH CHINA AGRICULTURAL UNIVERSITY, priority 2017, dated 2022):
Where two headings read alike, the source gives them in different places.

Tests used:
Type in all cases: in vivo
Apis cernan = test: Toxicity test on adult worker bees of Apis cernan, small beaker method; conditions: 500 ppm, 48 hours
Description: (2) Toxicity Test on Adult Worker Bees of Apis cernan.
Adult worker bees of Apis cernan having the same size were selected for test. The worker bees were collected from beekeeping boxes in the daystart of the test day and tested by using a small beaker method.
Operation process: A small amount of absorbent cotton was put into a 5 mL small beaker, 5 mL of a test liquid medicine (a concentration of 500 ppm) was dropped into the absorbent cotton, and stirred gently to make the absorbent cotton completely wet but not leached obviously, then the small beaker was put into a 500 mL large beaker, then 15 worker bees were put into the large beaker, and finally the large beaker was sealed with gauze. After treatment, the large beaker was placed in a dark room of an artificial climate box. After taking the medicine for 48 hours, a number of live and dead worker bees were investigated.

Spodoptera exigua = test: whole plant or invertebrate; conditions: for mortality at 500 ppm: Spodoptera exigua, 24 h, read-out: Spodoptera exigua Mortality (%) 500 ppm
How it was run: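 Cabbage leaf discs dipped 5 s in 500 ppm compound (0.05% Tween-80 aqueous), air-dried, fed to about 35 2nd-instar larvae at 28° C, three replicates. Deaths counted at 24 h; mortality corrected against Tween-80 control.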

Bombyx mori L. = test: Toxicity test on 2nd-instar larvae of Bombyx mori L., leaf immersion feeding method; conditions: 1000 ppm, 24 hours
Description: (1) Toxicity Test on 2nd-Instar Larvae of Bombyx mori L.
Bombyx mori L. is an important economic insect sensitive to pesticides in an agricultural ecosystem, and is also one of the non-target organisms of environmental ecology listed in pesticide registration of China. The 2nd-instar larvae of Bombyx mori L. were used as test objects and tested by using a leaf immersion feeding method.
Operation process: Samples were weighed accurately, and respectively added with 200 μL of dimethyl sulfoxide to prepare 10 g/L mother liquor which was diluted into a concentration of 1000 ppm with an aqueous solution containing 0.05% of Tween-80 during the test. Young cotyledons of mulberries were collected, washed and air-dried, immersed in a liquid medicine, taken out after 5 seconds, naturally air-dryed, and then transferred into a clean vessel. About 35 2nd -instar larvae of Bombyx mori L. were put into the vessel and fed at a constant temperature of 25° C. Each concentration was repeated 3 times, and an aqueous solution containing 0.05% of Tween-80 was used as a control group. After being treated for 24 hours, a number of dead Bombyx mori L. was counted, and a mortality (%) was calculated according to a formula that mortality (%)=(number of live larvae in the control group −number of treated live larvae)/number of live larvae in the control group * 100%.

Aphis craccivora = test: whole plant or invertebrate; conditions: for mortality at 500 ppm: Aphis craccivora, 24 h, read-out: Aphis craccivora Mortality (%) 500 ppm
How it was run: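 Wingless adults feeding on bean sprouts were dipped with the sprouts for 5 s in 500 ppm compound in aqueous 0.05% Tween-80, air-dried, then held at 23° C. Dead aphids counted after 24 h, triplicate, with 0.05% Tween-80 as control. Mortality (%) = (control live − treated live)/control live × 100.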

Plutella xylostella = test: whole plant or invertebrate; conditions: for mortality at 500 ppm: Plutella xylostella, read-out: Plutella xylostella Mortality (%) 500 ppm
How it was run: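 Cabbage leaf discs dipped 5 s in compound at 500 ppm (0.05% Tween-80 aqueous), air-dried, fed to about 35 2nd-instar larvae at 28° C., triplicate. Dead larvae counted after 24 h; mortality (%) corrected against Tween-80 control.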

Solenopsis invicta = test: whole plant or invertebrate; conditions: water test tube poison-feeding; for mortality at 100 ppm: Solenopsis invicta
How it was run: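 Fire ants fed compound by water test-tube poison-feeding at 100 ppm in aqueous 0.05% Tween-80/5% honey (from 10 g/L DMSO stock), kept at 25 °C. Live and dead ants counted at 24 and 72 h; mortality (%) calculated relative to live ants in the untreated control.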

[1] = 24 h, read-out: Solenopsis invicta Mortality (%) 100 ppm 24 h, 100 ppm, 24 h
[2] = 72 h, read-out: Solenopsis invicta Mortality (%) 100 ppm 72 h, 100 ppm, 72 h

| Compound | Toxicity determination Apis cernan Mortality (%) (Apis cernan) | mortality at 500 ppm (Spodoptera exigua) [%] | Toxicity determination Bombyx mori L. Mortality (%) (Bombyx mori L.) | mortality at 500 ppm (Aphis craccivora) [%] | mortality at 500 ppm (Plutella xylostella) [%] | mortality at 100 ppm (Solenopsis invicta; [1]) [%] | mortality at 100 ppm (Solenopsis invicta; [2]) [%] | Spodoptera exigua Mortality (%) 500 ppm (Spodoptera exigua; 500 ppm, 2nd-instar larvae, leaf immersion feeding, 24 hours) [%] | Aphis craccivora Mortality (%) 500 ppm (Aphis craccivora; 500 ppm, wingless adults, impregnation method, 24 hours) [%] | Plutella xylostella Mortality (%) 500 ppm (Plutella xylostella; 500 ppm, 2nd-instar larvae, leaf immersion feeding) [%] | Solenopsis invicta Mortality (%) 100 ppm 24 h (Solenopsis invicta; 100 ppm, 24 h) [%] | Solenopsis invicta Mortality (%) 100 ppm 72 h (Solenopsis invicta; 100 ppm, 72 h) [%] |
| --- | --- | --- | --- | --- | --- | --- | --- | --- | --- | --- | --- | --- |
| CC1(C)Nc2cc(C#N)nn2-c2ccccc21 [Compound A1, 5,5-dimethyl-4,5-dihydropyrazole[1,5-α]quinazoline-2-cyano] | 12 | 90 | 9 | 100 | 95 | 20 | 87 | – | – | – | – | – |
| CC(=O)N1c2c(Br)c(C#N)nn2-c2ccccc2C1(C)C [Compound A4] | 8 | 100 | 10 | 100 | 86 | 20 | 87 | – | – | – | – | – |
| CC(=O)c1nn2c(c1Br)NC(C)(C)c1ccccc1-2 [Compound A5] | 9 | 100 | 2 | 100 | 100 | 34 | 100 | – | – | – | – | – |
| CC1(C)Nc2c(Br)c(C(=O)N3CCCCC3)nn2-c2ccccc21 [Compound A7] | 6 | 100 | 6 | 100 | 100 | 20 | 100 | – | – | – | – | – |
| CC1(C)Nc2c([S+]([O-])C(F)(F)F)c(C#N)nn2-c2ccccc21 (stereo not drawn) [Compound A8] | 10 | 90 | 12 | 100 | 100 | 26 | 93 | – | – | – | – | – |
| Nc1ccc2c(c1)-n1nc(C(F)(F)F)cc1NC2(C(F)(F)F)C(F)(F)F [Compound A10] | 12 | 100 | 15 | 100 | 86 | 20 | 87 | – | – | – | – | – |
| Nc1ccc2c(c1)-n1nc(C(F)(F)F)c(-c3ccc(F)cc3)c1NC2(C(F)(F)F)C(F)(F)F [Compound A12] | 12 | 100 | 13 | 100 | 100 | 44 | 100 | – | – | – | – | – |
| Nc1ccc2c(c1)-n1nc(C(F)(F)F)c(SC(F)(F)F)c1NC2(C(F)(F)F)C(F)(F)F [Compound A13] | 17 | 100 | 17 | 100 | 100 | 20 | 100 | – | – | – | – | – |
| CC1(C)Nc2c(N)c(C#N)nn2-c2ccccc21 [Compound A15] | 5 | 100 | 8 | 100 | 100 | 24 | 100 | – | – | – | – | – |
| CNC(=O)Nc1c(C#N)nn2c1NC(C)(C)c1ccccc1-2 [Compound A19] | 5 | 100 | 7 | 100 | 100 | 20 | 100 | – | – | – | – | – |
| CC1(C)Nc2c([N+](=O)[O-])c(C#N)nn2-c2ccccc21 [Compound A21] | 6 | 100 | 0 | 100 | 100 | 24 | 100 | – | – | – | – | – |
| N#Cc1cnn2c1NC(F)(CN)c1ccc(Cl)cc1-2 (stereo not drawn) [Compound A22] | 3 | 100 | 0 | 100 | 96 | 30 | 97 | – | – | – | – | – |
| N#Cc1cnn2c1NC(N)(CN)c1ccc(Cl)cc1-2 (stereo not drawn) [Compound A23] | 5 | 100 | 0 | 100 | 100 | 34 | 100 | – | – | – | – | – |
| C[S+]([O-])c1nn2c(c1C#N)NC(F)(C(F)(F)F)c1ccccc1-2 (stereo not drawn) [Compound A26] | 10 | – | 7 | – | – | – | – | 100 | 100 | 100 | 45 | 100 |
| CCOC(=O)c1c(SC)nn2c1NC(F)(C(F)(F)F)c1ccccc1-2 (stereo not drawn) [Compound A27] | 15 | 100 | 10 | 100 | 100 | 30 | 100 | – | – | – | – | – |
| CSc1nn2c(c1C(=O)N1CCN(C)CC1)NC(F)(C(F)(F)F)c1ccccc1-2 (stereo not drawn) [Compound A30] | 8 | 100 | 8 | 100 | 100 | 40 | 100 | – | – | – | – | – |
| CNC(=O)N1c2c(C#N)c(SC)nn2-c2ccccc2C1(F)C(F)(F)F (stereo not drawn) [Compound A32] | 4 | 90 | 10 | 100 | 100 | 26 | 93 | – | – | – | – | – |
| Nc1cc2n(n1)-c1cnccc1C(F)(CC(F)(F)F)N2 (stereo not drawn) [Compound A36] | 0 | 100 | 3 | 100 | 100 | 44 | 100 | – | – | – | – | – |
| O=[N+]([O-])c1cc2n(n1)-c1cnccc1C(F)(CC(F)(F)F)N2 (stereo not drawn) [Compound A43] | 8 | 100 | 3 | 100 | 100 | 20 | 100 | – | – | – | – | – |
| CCOC(=O)c1c(SC)nn2c1NC(C)(C)c1nc(F)ncc1-2 [Compound A44] | 8 | 90 | 8 | 100 | 100 | 26 | 93 | – | – | – | – | – |
| CSc1nn2c(c1S(=O)(=O)c1ccccc1)NC(C)(C)c1nc(F)ncc1-2 [Compound A45] | 11 | 100 | 10 | 100 | 100 | 24 | 100 | – | – | – | – | – |
